Laboratory results as given in the NIST ThermoML archive (doi:10.1016/j.jct.2018.04.018).

Experiment: molar heat capacity at constant pressure
Details: 101.33 kPa, Liquid, DSC

CCCCCCCC[n+]1ccn(C)c1.F[P-](F)(F)(F)(F)F [1-octyl-3-methylimidazolium hexafluorophosphate]
Details | molar heat capacity at constant pressure [J/K/mol]
253.15 K | 549.23
258.15 K | 551.95
263.15 K | 554.33
268.15 K | 556.71
273.15 K | 559.77
278.15 K | 562.84
283.15 K | 566.92
288.15 K | 570.32
293.15 K | 573.73
298.15 K | 577.47
303.15 K | 580.53
308.15 K | 584.28
313.15 K | 587.34
318.15 K | 590.4
323.15 K | 593.46
328.15 K | 597.21
333.15 K | 600.27
338.15 K | 602.99
343.15 K | 606.05
348.15 K | 608.78
353.15 K | 611.84
358.15 K | 614.22
363.15 K | 617.28
368.15 K | 620.01
373.15 K | 622.39
378.15 K | 625.45
383.15 K | 628.17
388.15 K | 630.55
393.15 K | 633.28
398.15 K | 636.68
403.15 K | 639.74
408.15 K | 643.83
413.15 K | 646.89
